Measurements from patent US20050154042A1, “N-alkyl pyrroles as HMG-CoA reductase inhibitors” (priority 2003, published 2005).
Where a name gives a salt, the structure may show the parent alone.

`CC(C)n1c(/C=C/[C@@H](O)C[C@@H](O)CC(=O)[O-])c(-c2ccc(F)cc2)c(-c2ccc(F)cc2)c1C(=O)Nc1cccc(Cl)c1.[Na+]` [Example 139, (3R,5S)-7-[5-(3-Chloro-phenylcarbamoyl)-3,4-bis-(4-fluoro-phenyl)-1-isopropyl-1H-pyrrol-2-yl]-3,5-dihydroxy-hept-6-enoic Acid Sodium Salt] showed a melting point of 229 to 230 °C. `CC(C)n1c(/C=C/[C@@H](O)C[C@@H](O)CC(=O)[O-])c(-c2ccc(F)cc2)c(-c2ccccc2)c1C(=O)NCc1cccc(C#N)c1.[Na+]` [Example 147, (3R,5S)-7-[5-(3-Cyano-benzylcarbamoyl)-3-(4-fluoro-phenyl)-1-isopropyl-4-phenyl-1H-pyrrol-2-yl]-3,5-dihydroxy-hept-6-enoic Acid Sodium Salt] showed a melting point of 208 to 210 °C. `CC(C)n1c(CC[C@@H](O)C[C@@H](O)CC(=O)[O-])c(-c2ccc(F)cc2)c(-c2ccc(F)cc2)c1C(=O)NCc1cccc(S(=O)(=O)N(C)C)c1.[Na+]` [Example 71, (3R,5R)-7-[5-(3-dimethylsulfamoyl-benzylcarbamoyl)-3,4-bis-(4-fluoro-phenyl)-1-isopropyl-1H-pyrrol-2-yl]-3,5-dihydroxy-heptanoate Sodium Salt] showed a melting point of 172 to 175 °C. For `CNC(=O)c1c(-c2ccccc2)c(-c2ccc(F)cc2)c(CC[C@@H](O)C[C@@H](O)CC(=O)[O-])n1C(C)C.[Na+]` [Example 156, (3R,5R)-7-[3-(4-Fluoro-phenyl)-1-isopropyl-5-methylcarbamoyl-4-phenyl-1H-pyrrol-2-yl]-3,5-dihydroxy-heptanoic Acid Sodium Salt], the melting point was 238 to 240 °C. Work on `CC(C)n1c(CC[C@@H](O)C[C@@H](O)CC(=O)O)c(-c2ccc(F)cc2)c(-c2ccccc2)c1C(=O)NCc1ccc(F)cc1` (as salt: sodium) [Example 9, (3R,5R)-7-[5-(4-Fluoro-benzylcarbamoyl)-3-(4-fluoro-phenyl)-1-isopropyl-4-phenyl-1H-pyrrol-2-yl]-3,5-dihydroxy-heptanoic Acid Sodium Salt] yielded a melting point of 218 to 220 °C. `COc1ccc([C@H](C)NC(=O)c2c(-c3ccc(F)cc3)c(-c3ccc(F)cc3)c(CC[C@@H](O)C[C@@H](O)CC(=O)[O-])n2C(C)C)cc1.[Na+]` [Example 152, (3R,5R)-7-{3,4-Bis-(4-fluoro-phenyl)-1-isopropyl-5-[(S)—I-(4-methoxy-phenyl)-ethylcarbamoyl]-1H-pyrrol-2-yl]-3,5-dihydroxy-heptanoic Acid Sodium Salt] gave a melting point of 227 to 229 °C. `CC(C)n1c(/C=C/[C@@H](O)C[C@@H](O)CC(=O)[O-])c(-c2ccc(F)cc2)c(-c2ccc(F)cc2)c1C(=O)Nc1cccc(OCc2ccccc2)c1.[Na+]` [Example 132, (3R,5 S)-7-[5-(3-Benzyloxy-phenylcarbamoyl)-3,4-bis-(4-fluoro-phenyl)-1-isopropyl-1H-pyrrol-2-yl]-3,5-dihydroxy-hept-6-enoic Acid Sodium Salt] showed a melting point of 225 to 227 °C. In the case of `CC(C)n1c(/C=C/[C@@H](O)C[C@@H](O)CC(=O)[O-])c(-c2ccc(F)cc2)c(-c2ccccc2)c1C(N)=O.[Na+]` [Example 160, (3R,5S)-7-[5-Carbamoyl-3-(4-fluoro-phenyl)-1-isopropyl-4-phenyl-1H-pyrrol-2-yl]-3,5-dihydroxy-hept-6-enoic Acid Sodium Salt], the melting point is reported as 238 to 240 °C. `CC(C)n1c(CC[C@@H](O)C[C@@H](O)CC(=O)O)c(-c2ccc(F)cc2)c(-c2ccc(F)cc2)c1C(=O)Nc1ccc(CC(N)=O)cc1` (as salt: sodium) [Example 13] gave a melting point of 248 to 250 °C. `Cc1cnc(CNC(=O)c2c(-c3ccccc3)c(-c3ccc(F)cc3)c(CC[C@@H](O)C[C@@H](O)CC(=O)O)n2C(C)C)cn1` (as salt: sodium) [Example 97, (3R,5R)-7-[3-(4-Fluorophenyl)-1-isopropyl-5-[(5-methylpyrazin-2-ylmethyl)carbamoyl]-4-phenyl-1H-pyrrol-2-yl]-3,5-dihydroxyheptanoic Acid Sodium Salt] showed a melting point of 184 to 188 °C. `CC(C)n1c(/C=C/[C@@H](O)C[C@@H](O)CC(=O)[O-])c(-c2ccc(F)cc2)c(-c2ccccc2)c1C(=O)Nc1ccccc1.[Na+]` [Example 2, (3R,5S)-7-[3-(4-Fluoro-phenyl)-1-isopropyl-4-phenyl-5-phenylcarbamoyl-1H-pyrrol-2-yl]-3,5-dihydroxy-hept-6-enoic Acid Sodium Salt] showed a melting point of 239 to 241 °C. Work on `CC(C)n1c(CC[C@@H](O)C[C@@H](O)CC(=O)[O-])c(-c2ccc(F)cc2)c(-c2ccccc2)c1C(=O)Nc1cccc(C(=O)N(C)C)c1.[Na+]` [Example 108, (3R,5R)-7-[5-(3-Dimethylcarbamoyl-phenylcarbamoyl)-3-(4-fluoro-phenyl)-1-isopropyl-4-phenyl-1H-pyrrol-2-yl]-3,5-dihydroxy-heptanoic Acid, Sodium Salt] yielded a melting point of 156 to 205 °C. With `CC(C)n1c(CC[C@@H](O)C[C@@H](O)CC(=O)[O-])c(-c2ccc(F)cc2)c(-c2ccccc2)c1C(=O)Nc1cccc(C#N)c1.[Na+]` [Example 142, (3R,5R)-7-[5-(3-Cyano-phenylcarbamoyl)-3-(4-fluoro-phenyl)-1-isopropyl-4-phenyl-1H-pyrrol-2-yl]-3,5-dihydroxy-heptanoic Acid Sodium Salt] the melting point was 197 to 199 °C. `CC(C)n1c(CC[C@@H](O)C[C@@H](O)CC(=O)[O-])c(-c2ccc(F)cc2)c(-c2ccccc2)c1C(=O)NCc1ccccc1.[Na+]` [Example 114, (3R,5R)-7-[5-Benzylcarbamoyl-3-(4-fluoro-phenyl)-1-isopropyl-4-phenyl-1H-pyrrol-2-yl]-3,5-dihydroxy-heptanoic Acid Sodium Salt] showed a melting point of 186 to 189 °C. With `COC(=O)c1ccc(NC(=O)c2c(-c3ccccc3)c(-c3ccc(F)cc3)c(CC[C@@H](O)C[C@@H](O)CC(=O)[O-])n2C(C)C)nc1.[Na+]` [Example 118, (3R,5R)-6-{[5-(6-Carboxy-3,5-dihydroxy-hexyl)-4-(4-fluoro-phenyl)-1-isopropyl-3-phenyl-1H-pyrrole-2-carbonyl]-amino}-nicotinic Acid Methyl Ester Sodium Salt] the melting point was 188 to 190 °C (dec.). Work on `Cc1ccnc(NC(=O)c2c(-c3ccc(F)cc3)c(-c3ccc(F)cc3)c(C=O)n2C(C)C)n1` [Example 179, 3,4-bis-(4-fluoro-phenyl)-5-formyl-1-isopropyl-1H-pyrrole-2-carboxylic Acid (4-methyl-pyrimidin-2-yl)-amide] yielded a melting point of 173 to 175 °C. For `CC(C)n1c(CC[C@@H]2C[C@@H](O)CC(=O)O2)c(-c2ccc(F)cc2)c(-c2ccccc2)c1C(=O)Nc1ccc(C(=O)O)cn1` [Example 124, (2R,4R)-6-({4-(4-Fluoro-phenyl)-5-[2-(4-hydroxy-6-oxo-tetrahydro-pyran-2-yl)-ethyl]-1-isopropyl-3-phenyl-1H-pyrrole-2-carbonyl}-amino)-nicotinic Acid], the melting point was 172 to 174 °C (dec.). Molecule `CC(C)OC(=O)c1ccc(CNC(=O)c2c(-c3ccccc3)c(-c3ccc(F)cc3)c(/C=C/[C@@H](O)C[C@@H](O)CC(=O)[O-])n2C(C)C)cc1.[Na+]` [Example 149, (3R,5S)-7-[3-(4-Fluoro-phenyl)-5-(4-isopropoxycarbonyl-benzylcarbamoyl)-1-isopropyl-4-phenyl-1H-pyrrol-2-yl]-3,5-dihydroxy-hept-6-enoic Acid Sodium Salt] has a melting point of 222 to 224 °C. In the case of `CNC(=O)c1c(-c2ccccc2)c(-c2ccc(F)cc2)c(/C=C/[C@@H](O)C[C@@H](O)CC(=O)[O-])n1C(C)C.[Na+]` [Example 157, (3R,5S)-7-[3-(4-Fluoro-phenyl)-1-isopropyl-5-methylcarbamoyl-4-phenyl-1H-pyrrol-2-yl]-3,5-dihydroxy-hept-6-enoic Acid Sodium Salt], the melting point is reported as 224 to 226 °C. Molecule `CC(C)n1c(/C=C/[C@@H](O)C[C@@H](O)CC(=O)[O-])c(-c2ccc(F)cc2)c(-c2ccccc2)c1C(=O)Nc1cccc(C#N)c1.[Na+]` [Example 143, (3R,5S)-7-[5-(3-Cyano-phenylcarbamoyl)-3-(4-fluoro-phenyl)-1-isopropyl-4-phenyl-1H-pyrrol-2-yl]-3,5-dihydroxy-hept-6-enoic Acid Sodium Salt] has a melting point of 210 to 212 °C. Work on `COc1cccc(NC(=O)c2c(-c3ccc(F)cc3)c(-c3ccc(F)cc3)c(/C=C/[C@@H](O)C[C@@H](O)CC(=O)[O-])n2C(C)C)c1.[Na+]` [Example 137, (3R,5 S)-7-[3,4-Bis-(4-fluoro-phenyl)-1-isopropyl-5-(3-methoxy-phenylcarbamoyl)-1H-pyrrol-2-yl]-3,5-dihydroxy-hept-6-enoic Acid Sodium Salt] yielded a melting point of 225 to 227 °C. With `CC(C)n1c(CC[C@@H](O)C[C@@H](O)CC(=O)[O-])c(-c2ccc(F)cc2)c(-c2ccccc2)c1C(=O)NCc1ccc(C(=O)[O-])cc1.[Na+].[Na+]` [Example 164, (3R,5R)-4-({[5-(6-Carboxy-3,5-dihydroxy-hexyl)-4-(4-fluoro-phenyl)-1-isopropyl-3-phenyl-1H-pyrrole-2-carbonyl]-amino}-methyl)-benzoic Acid Disodium Salt] the melting point was 255 to 260 °C. For `CC(C)n1c(CC[C@@H](O)C[C@@H](O)CC(=O)O)c(-c2ccc(F)cc2)c(-c2ccccc2)c1C(=O)NCc1nc2ccccc2[nH]1` (as salt: sodium) [Example 92], the melting point was 234 to 236 °C (dec.). `COc1ccc([C@@H](C)NC(=O)c2c(-c3ccc(F)cc3)c(-c3ccc(F)cc3)c(CC[C@@H](O)C[C@@H](O)CC(=O)[O-])n2C(C)C)cc1.[Na+]` [Example 154, (3R,5R)-7-{3,4-Bis-(4-fluoro-phenyl)-1-isopropyl-5-[(R)-1-(4-methoxy-phenyl)-ethylcarbamoyl]-1H-pyrrol-2-yl}-3,5-dihydroxy-heptanoic Acid Sodium Salt] gave a melting point of 225 to 227 °C. For `CC(C)n1c(CC[C@@H](O)C[C@@H](O)CC(=O)[O-])c(-c2ccc(F)cc2)c(-c2ccccc2)c1C(N)=O.[Na+]` [Example 161, (3R,5R)-7-[5-Carbamoyl-3-(4-fluoro-phenyl)-1-isopropyl-4-phenyl-1H-pyrrol-2-yl]-3,5-dihydroxy-heptanoic Acid Sodium Salt], the melting point was 212 to 214 °C.
